Experimental data from patent US20140171424A1, “HYPERTENSION AND HYPERURICEMIA” (ARDEA BIOSCIENCES, INC., priority 2011, published 2014).
pEC50, pIC50: −log10 of the molar value. Values joined by “and” are separate entries in the source; they are usually repeats but may differ in a detail not shown here. Identical values can stand only once. Like-named read-outs stand apart in the source and are kept apart here. Blank lines part the entries; values can stand above or below the molecule they belong to.

Tests used:
OAT4 [1] = target: T1, OAT4 (Homo sapiens, UniProt Q9NSA0); settings: read-out: IC50, inhibition of OAT4 uptake of 3H-estrone sulfate; cited from earlier work
T1 sequence (Q9NSA0 1-550): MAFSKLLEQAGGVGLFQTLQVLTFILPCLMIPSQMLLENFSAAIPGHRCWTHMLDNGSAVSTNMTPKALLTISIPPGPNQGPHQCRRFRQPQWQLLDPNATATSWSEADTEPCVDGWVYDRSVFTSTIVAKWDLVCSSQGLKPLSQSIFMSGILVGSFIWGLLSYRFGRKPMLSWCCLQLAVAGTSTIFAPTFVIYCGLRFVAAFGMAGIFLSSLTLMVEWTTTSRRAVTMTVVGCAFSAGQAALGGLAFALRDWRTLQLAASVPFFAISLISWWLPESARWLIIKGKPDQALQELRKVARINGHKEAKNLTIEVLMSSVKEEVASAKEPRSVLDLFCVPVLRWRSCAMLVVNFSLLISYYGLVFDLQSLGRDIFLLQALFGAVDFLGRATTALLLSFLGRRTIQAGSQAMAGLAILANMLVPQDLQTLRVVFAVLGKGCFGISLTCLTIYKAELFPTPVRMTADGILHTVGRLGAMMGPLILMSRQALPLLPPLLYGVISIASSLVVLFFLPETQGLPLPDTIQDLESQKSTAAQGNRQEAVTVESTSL

OAT4 [2] = target: T1, OAT4; experiment: OAT4 urate (14C-uric acid) transport in transfected HEK293/293T cells; assay type: cell-based; set-up: expressed in transfected cells; settings: for OAT4 transport activity of 14C-uric acid: UA 100 μM, drug 100 μM, 5 min incubation, OAT4-expressing HEK293 cells
Protocol: (§1) For cultured cells, HEK293 cells stably expressing the transporters were produced through transfection of DNA constructs carrying the transporters, antibiotic selection, and clonal selection of clones with high transporter activity. Alternatively, cells transiently expressing the transporters were produced by reverse transfection of HEK293T cells. Transfectants were plated at high density onto poly-L-lysine coated multiwell plates and assayed 1-2 days later.

OAT4 [3] = target: T1, OAT4; settings: cited from earlier work; for effect on OAT4 uric acid transport activity: J. Am. Soc. Nephrol. 18:430 and 18:3101, 2007
OAT4 [4] = target: T1, OAT4; experiment: 3H-Estrone sulphate (ES) transport in 293T cells stably expressing OAT4; assay type: cell-based; set-up: expressed in transfected cells; settings: 1 mM HCTZ, varying concentrations of Lesinurad
Protocol: as §1, with “later. Results were similar for stable and transient expressing cells.” for “later.”

URAT1 = target: T2, URAT1 (Homo sapiens, UniProt Q96S37); experiment: URAT1 UA transport in 293T cells; assay type: cell-based; settings: 293T cells expressing URAT1 and/or OAT4; varying concentrations
T2 construct: expressed in transfected cells; host or cells: 293T cells
T2 sequence (Q96S37 1-553): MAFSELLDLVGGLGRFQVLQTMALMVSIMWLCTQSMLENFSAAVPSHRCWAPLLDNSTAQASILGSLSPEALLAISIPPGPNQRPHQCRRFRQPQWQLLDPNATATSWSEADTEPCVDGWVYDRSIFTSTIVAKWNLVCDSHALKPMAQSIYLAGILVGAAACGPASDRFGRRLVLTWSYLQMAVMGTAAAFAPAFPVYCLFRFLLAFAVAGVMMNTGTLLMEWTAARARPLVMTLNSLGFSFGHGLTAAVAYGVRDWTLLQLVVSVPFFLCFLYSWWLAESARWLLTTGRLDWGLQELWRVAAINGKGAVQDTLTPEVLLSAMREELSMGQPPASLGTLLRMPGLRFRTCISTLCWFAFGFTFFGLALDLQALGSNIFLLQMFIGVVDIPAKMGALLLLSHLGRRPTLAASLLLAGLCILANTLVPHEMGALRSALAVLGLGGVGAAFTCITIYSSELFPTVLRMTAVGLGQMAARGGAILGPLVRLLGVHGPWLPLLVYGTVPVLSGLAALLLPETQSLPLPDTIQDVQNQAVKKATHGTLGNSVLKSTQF
Protocol: as §1

[5] = Clinical phase 2 study in gout patients not adequately responding to allopurinol (sUA <6 mg/dL responders); assay type: in vivo, human; settings: Week 4; Lesinurad added to allopurinol regimen; patients receiving thiazide diuretic
Protocol: FIG. 10A represents a schematic of a clinical phase 2 study design. The study was a 4-week, double-blind, placebo-controlled clinical trial in 208 gout patients who were not adequately responding to allopurinol with serum urate (sUA)≧6 mg/dL while receiving a stable dose of allopurinol for at least 6 weeks. One of three doses of Lesinurad or matching placebo was added to the patients allopurinol regimen. The primary endpoint of the study was mean reduction in sUA at Week 4, with the key secondary endpoint the proportion of subjects with sUA <6.0 mg/dL at Week 4. A small number of patients in this trial received a thiazide diuretic during the treatment period; their response rates were compared to those patients not receiving concomitant thiazide diuretics and the results presented in FIG. 10B.

OAT4 [6] = target: T1, OAT4; experiment: OAT4 transport of 6-carboxyfluorescein (CF) in transfected HEK293/HEK293T cells; assay type: cell-based; set-up: expressed in transfected cells; settings: for OAT4 transport activity of 6-carboxyfluorescein: CF 5 μM, drug 100 μM, 5 min incubation, OAT4-expressing HEK293 cells
Protocol: as §1, with “later. Results were similar for stable and transient expressing cells.” for “later.”

SMILES: CCc1oc2cc(O)ccc2c1C(=O)c1cc(Br)c(O)c(Br)c1 [6-hydroxybenzbromarone]
pIC50 (OAT4 [1]): 5.49

SMILES: NS(=O)(=O)c1cc2c(cc1Cl)NCNS2(=O)=O [Hydrochlorothiazide, 6-Chloro-1,1-dioxo-3,4-dihydro-2H-1,2,4-benzothiadiazine-7-sulfonamide]
effect on OAT4 uric acid transport activity (OAT4 [3]): increase OAT4 uric acid transport activity
increase of OAT4-mediated uric acid uptake (OAT4 [3]; one study): 2.6 fold
effect of HCTZ on Lesinurad-mediated inhibition of OAT4 ES transport (OAT4 [4]): no effect on Lesinurad-mediated inhibition of OAT4 transporter activity

SMILES: O=C(O)CSc1nnc(Br)n1-c1ccc(C2CC2)c2ccccc12 [Lesinurad, 2-(5-bromo-4-(4-cyclopropylnaphthalen-l-yl)-4H-1,2,4-triazol-3-ylthio)acetic acid]
percent inhibition of UA transport, URAT1 (URAT1): inhibits URAT1 and OAT4 with similar potency
proportion of patients with sUA below 6 mg/dL, patients taking diuretics vs not [5]: patients receiving diuretics had responded well to Lesinurad

SMILES: Cc1cccc(Nc2ccncc2S(=O)(=O)NC(=O)NC(C)C)c1 [torasemide]
effect on OAT4 uric acid transport activity (OAT4 [3]): increase OAT4 uric acid transport activity

Continued, values first:

pIC50 (OAT4 [2]; varying amounts of drug, read-out: OAT4 IC50 (OAT4 urate transport, cpm)): 5.00
SMILES: CCc1oc2ccccc2c1C(=O)c1cc(Br)c(O)c(Br)c1 [Benzbromarone]

OAT4 transport activity of 6-carboxyfluorescein (OAT4 [6]): do not inhibit OAT4 transport activity
OAT4 transport activity of 14C-uric acid (OAT4 [2]): do not inhibit OAT4 transport activity
SMILES: Oc1ncnc2[nH]ncc12 [allopurinol]

OAT4 transport activity of 6-carboxyfluorescein (OAT4 [6]): do not inhibit OAT4 transport activity
OAT4 transport activity of 14C-uric acid (OAT4 [2]): do not inhibit OAT4 transport activity
SMILES: O=c1[nH]c(=O)c2c[nH]nc2[nH]1 [oxypurinol]

pEC50 (OAT4 [6]; HEK293T cells transiently transfected with OAT4, CF substrate, 0, 0.5, 1, 2 nM cold uric acid, read-out: EC50 of cold uric acid as competitive substrate for OAT4 of CF): 3.05 and ~3.05
SMILES: O=c1[nH]c(=O)c2[nH]c(=O)[nH]c2[nH]1 [uric acid]
